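48-hour exposure; five concentrations; linearly interpolated endpoints. Here, GI50 denotes the concentration required for 50% inhibition of growth. TGI denotes the concentration required for complete inhibition of growth.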
What was measured:
Experiment in all cases: DTP human tumour cell line panel, 48 h
ACHN renal = test system: ACHN renal
HCC-2998 colon = test system: HCC-2998 colon
HCT-116 colon = test system: HCT-116 colon
MALME-3M melanoma = test system: MALME-3M melanoma
NCI-H522 lung = test system: NCI-H522 lung
SF-268 CNS = test system: SF-268 CNS
SF-295 CNS = test system: SF-295 CNS
SK-MEL-28 melanoma = test system: SK-MEL-28 melanoma
U251 CNS = test system: U251 CNS
UO-31 renal = test system: UO-31 renal

Row | SMILES | TGI (ACHN renal) [µM] | TGI (HCC-2998 colon) [µM] | TGI (HCT-116 colon) [µM] | TGI (MALME-3M melanoma) [µM] | TGI (NCI-H522 lung) [µM] | TGI (SF-268 CNS) [µM] | TGI (SF-295 CNS) [µM] | TGI (SK-MEL-28 melanoma) [µM] | TGI (U251 CNS) [µM] | TGI (UO-31 renal) [µM] | GI50 (HCC-2998 colon) [µM] | GI50 (HCT-116 colon) [µM] | GI50 (MALME-3M melanoma) [µM] | GI50 (NCI-H522 lung) [µM] | GI50 (SF-268 CNS) [µM] | GI50 (SF-295 CNS) [µM] | GI50 (SK-MEL-28 melanoma) [µM] | GI50 (U251 CNS) [µM] | GI50 (UO-31 renal) [µM]
1 | O=c1ccc2nc3cc(Br)ccc3sc-2c1 | > 100 | > 100 | > 100 | > 100 | > 100 | > 100 | > 100 | > 100 | > 100 | > 100 |  |  |  |  |  |  |  |  | 
2 | O=C(CSc1nc2ccc([N+](=O)[O-])cc2s1)c1ccc2ccccc2c1 | > 100 | > 100 | > 100 | > 100 | > 100 | > 100 | > 100 | > 100 | > 100 | > 100 |  |  |  |  |  |  |  |  | 
3 | COc1cc2oc(=O)ccc2cc1C(=O)CC(C)C | > 100 | > 100 | > 100 |  | 56.4 | > 100 | > 100 | > 100 | > 100 | > 100 |  |  |  |  |  |  |  |  | 
4 | CN(C)c1ccc(C=Nc2ccc(Oc3ccc(Cl)cc3)c(Cl)c2)cc1 | 79.6 | 38.9 | 34.5 | 36.8 | 31.4 | 28.1 | 50.9 | 48.6 | 34.7 | 22.9 |  |  |  |  |  |  |  |  | 
5 | CC(=O)OC1CC[C@@]2(C)C(=CC[C@@H]3[C@@H]2CC[C@]2(C)Nc4nn(S(C)(=O)=O)cc4C[C@@H]32)C1 (some centres not stated) |  | > 100 |  | 78.6 | > 100 |  | > 100 | > 100 | > 100 | > 100 |  |  |  |  |  |  |  |  | 
6 | Cn1cnc([N+](=O)[O-])c1Sc1nc(N)nc2c1ncn2C1OC(CO)C(O)C1O (configuration not stated) | > 100 | 15.3 | > 52.2 | > 100 | 33.5 | > 100 | > 72.6 | > 100 | > 100 | 37.4 |  |  |  |  |  |  |  |  | 
7 | Cn1c(=O)[nH]c2nncnc2c1=O |  | > 442 | 219 | 119 | > 516 | > 625 | 325 | > 625 | 312 | 358 |  |  |  |  |  |  |  |  | 
8 | OC(c1ccccc1)(c1ccccc1)c1nccc2ccccc12 | > 100 |  | 97 | 68 | 40.8 | > 100 | 36.2 | > 100 | > 100 | > 100 |  |  |  |  |  |  |  |  | 
9 | O=C(O)c1ccc(C(=O)c2ccccc2C(=O)O)cc1C(=O)O | > 100 | > 100 | > 100 | > 100 | > 100 | > 100 | > 100 | > 100 | > 100 | > 100 |  |  |  |  |  |  |  |  | 
10 | CC(C)(C)OC(=O)NC(CCCCNC(=O)OCc1ccccc1)C(=O)NCCNc1ccc(NCCNC(=O)C(CCCCNC(=O)OCc2ccccc2)NC(=O)OC(C)(C)C)c2c1C(=O)c1ccccc1C2=O (configuration not stated) | > 100 | > 100 | > 75.1 | > 100 | 93.3 | > 64.6 | > 100 | > 100 | 17.1 | > 100 |  |  |  |  |  |  |  |  | 
11 | COc1ccc(C(=O)C2=NON3OC23C(=O)c2ccc(OC)cc2)cc1 (configuration not stated) | 31.3 | 32.8 | 19.6 | 25.7 | 3.68 | 40.2 | 34.1 | 32.7 | 30.3 | 28 |  |  |  |  |  |  |  |  | 
12 | Cc1coc2c1C[C@@]1(C)[C@H](CCC[C@@H]1C)[C@H]2O | 78.3 | > 100 | > 100 | 44.7 | 90.5 | > 100 | > 100 | > 100 | > 100 |  |  |  |  |  |  |  |  |  | 
13 | OCc1cn(C(c2ccccc2)(c2ccccc2)c2ccccc2)cn1 | > 100 | > 100 | > 100 |  | > 100 |  | 89.7 | > 100 | > 100 | > 100 |  |  |  |  |  |  |  |  | 
14 | COc1nc2[nH]ccc2c(=O)[nH]1 | > 100 | > 100 | > 100 | > 100 |  | > 100 | > 100 | > 100 | > 100 | > 100 |  |  |  |  |  |  |  |  | 
15 | N#CC12Cc3cc4c(cc3-c3cccc(c31)CCN2C(=O)c1ccccc1)OCO4 (configuration not stated) | > 100 | > 100 | > 100 | > 100 |  | > 100 | > 100 | > 100 | > 100 | > 100 |  |  |  |  |  |  |  |  | 
16 | COCC1CCCN1c1ccc(C=N/C(C#N)=C(\N)C#N)cc1 (configuration not stated) |  | > 100 | > 100 | > 100 | 56.2 | > 100 | > 100 | > 100 | > 100 | > 100 | > 100 | 9.19 | 7.75 | 15.8 | 67.8 | > 100 | > 100 | 17.2 | 4.98
